{"source": "paper PMC13330650", "about": "(Matrix biology : journal of the International Society for …, 2025)", "key": {"[1]": {"tested_on": "UGDH pS316 in LNCaP cells", "experiment": "western blot of UGDH pS316 (anti-p-Akt substrate) in LNCaP whole cell lysates", "type": "cell-based, human", "conditions": "for EGF-stimulated p-UGDH band intensity: EGF 20ng/mL, inhibitor 20 μM", "text": "To validate the phosphorylation of UGDH by RSK2, S6K1, and SGK1 in a cellular context, we used a western analysis that capitalized on the general reactivity of an antibody generated against the phosphorylated AGC kinase motif (RxRxxpS/T) for targets of Akt, which is also a member of this kinase family. To validate the assay, we first compared phosphorylation of S316 in the in vitro kinase assay using purified recombinant UGDH. […] We further validated using serum starved LNCaP cells treated with EGF to stimulate activity of RSK2 [26] and S6K1 [27], or DHT to activate SGK1 [28], prior to lysate harvest.\n(§1) Cell treatments were conducted as follows, except where described. To stimulate phosphorylation of UGDH at S316 for Western blot analysis, cells were cultured in replete medium until they reached 70 % confluence. Seventy-two hours prior to harvest, medium was replaced with phenol-red-free media containing 5 % CS-FBS to reduce androgen signaling. Twenty-four hours prior to harvest, medium was replaced with phenol-red-free media containing 10 % CS-FBS plus 10 nM DHT or vehicle control. EGF (20ng/mL) or vehicle control were added to cell media twenty minutes prior to harvest. For assessment of UGDH pS316 in these conditions with kinase inhibition, assays were repeated with kinase inhibitors added alongside EGF, DHT, and controls. Kinase inhibitor treatment concentrations were optimized based on published efficacy ranges and the following were used for all assays: BIX02565 (20 μM), PF4708671 (20 μM), GSK650394 (40 μM). Proliferation assays were performed with 10 μM enzalutamide (enz) added as described below, and 3D assays were performed with 1 μM enz added during seeding as described. For click chemistry quantification of glycans in cells treated with 4-MU, 10 μM was added to cell medium during the addition of the click labeling reagents.\nMedia were aspirated from cells, and a portion kept for analysis of HA content. Cells were washed with 2 mL cold 1x PBS, scraped into 1 mL of cold 1xPBS, pelleted by centrifugation, and lysed with 1x RIPA buffer supplemented with 1x protease inhibitor cocktail. For analysis of phosphoprotein expression, 1x phosphatase inhibitor was added to the lysis buffer. Bradford assay was performed to quantify protein content of cell lysates. Blots were imaged and quantified through fluorescence emission using the Odyssey Infrared Imaging System (LI-COR Biosciences, Lincoln, NE, USA). β-tubulin or GAPDH were used to normalize protein expression. Each analysis was plotted for three technical replicates of a representative experiment that was repeated at least three times. Statistical significance was assessed by one-way ANOVA followed by Tukey’s post hoc test for multiple comparisons."}, "[2]": {"tested_on": "O-glycans in LNCaP UGDH WT (OE) and S316D cells", "experiment": "metabolic O-glycan labeling (Ac4GalNaz click chemistry) with 4-MU", "type": "cell-based, human", "conditions": "10 μM 4-MU, 72 hours"}, "[3]": {"tested_on": "LNCaP cell lines (VC, UGDH WT (OE), UGDH S316D, UGDH S316A)", "experiment": "proliferation assay (resazurin conversion to resorufin)", "type": "cell-based, human", "conditions": "for cell number / proliferation, single kinase inhibitor: all lines, 3-day, inhibitor 20 μM, replete media", "procedure": "as §1\nFor basal growth, 5 × 10^4 cells of each line were cultured in 24-well plates in standard steroid-replete media. Cell proliferation was measured daily for three days in replicate plates incubated for 2 h with media containing 10 % resazurin, after which fluorescence of the reduced product, resorufin, was measured (560Ex/590Em) in a microplate reader. To assess the impacts of kinase inhibition on cell growth, assays were repeated in the presence of inhibitors individually and in combination. For androgen-mediated cell growth with kinase inhibition, cells were cultured in 24-well plates in standard steroid-replete media. After 12 h, media were first removed and replaced with media containing 5 % CS-FBS (androgen-depleted conditions) for 48 h, and then media were removed and replaced with media containing 10 % CS-FBS plus 10 nM DHT and kinase inhibitors for another 48 h. Cell proliferation was measured daily as described above beginning when cells were switched to androgen free conditions. For enz treatments, cells were cultured in 24-well plates in standard steroid-replete media. After 12 h, media were replaced with replete media containing vehicle or 10 μM enz and vehicle or kinase inhibitors. For assays with kinase inhibition, cell proliferation was measured daily as described above beginning when cells were switched to the respective treatment condition. Cell numbers were extrapolated from fluorescence values by comparison to a standard curve for each respective cell line, and cell count at the end of the experiment was normalized to cell count on day zero directly following media replacement. All data were plotted for four technical replicates of experiments that were repeated three times. Statistical significance was assessed by one-way ANOVA followed by Tukey’s post hoc test for multiple comparisons."}, "[4]": {"molecular_target": "T1, UGDH WT (Homo sapiens, UniProt O60701)", "T1 construct": "six-histidine; made in house; host or cells: E. coli BL21(DE3)", "T1 sequence (O60701 1-494)": "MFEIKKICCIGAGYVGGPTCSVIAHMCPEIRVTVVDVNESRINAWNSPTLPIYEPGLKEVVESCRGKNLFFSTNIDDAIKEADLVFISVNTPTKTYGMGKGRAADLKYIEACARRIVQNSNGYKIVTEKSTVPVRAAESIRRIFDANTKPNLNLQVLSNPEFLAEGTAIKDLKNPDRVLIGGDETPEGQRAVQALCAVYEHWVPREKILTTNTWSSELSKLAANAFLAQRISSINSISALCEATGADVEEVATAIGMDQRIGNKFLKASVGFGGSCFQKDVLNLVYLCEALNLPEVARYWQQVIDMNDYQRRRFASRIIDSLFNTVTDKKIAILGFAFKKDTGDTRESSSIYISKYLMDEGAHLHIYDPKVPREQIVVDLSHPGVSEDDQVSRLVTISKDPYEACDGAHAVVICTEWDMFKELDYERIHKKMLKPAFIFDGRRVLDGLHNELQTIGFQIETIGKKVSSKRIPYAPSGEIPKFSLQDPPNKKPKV", "experiment": "steady state kinetics of purified recombinant UGDH WT", "type": "biochemical", "conditions": "cofactor NAD+ varied", "procedure": "(§2) Purified S316 mutants were compared to the UGDH WT enzyme using the following approaches as previously described. Enzymatic activity was evaluated by steady state kinetics in the presence and absence of the endogenous inhibitor UDP-Xylose to compare Michaelis constants and IC50 values. Intrinsic stability was assessed by thermal denaturation and quaternary structure was determined by size exclusion chromatography. Binding of UDP-Xylose to recombinant UGDH and mutants was measured by isothermal titration calorimetry using the MicroCal PEAQ-ITC (Malvern Panalytical). […] Binding heats were corrected for the heat of dilution and analyzed using the MicroCal PEAQ-ITC Analysis Software, employing a single-site binding model to determine Kd values."}, "[5]": {"molecular_target": "T2, UGDH S316A (Homo sapiens, UniProt O60701, S316A)", "T2 construct": "six-histidine; made in house; host or cells: E. coli BL21(DE3)", "T2 sequence (O60701 1-494 S316A)": "T1 sequence (O60701 1-494) with S316A", "experiment": "steady state kinetics of purified recombinant UGDH S316A", "type": "biochemical", "conditions": "cofactor NAD+ varied", "procedure": "as §2"}, "[6]": {"molecular_target": "T3, UGDH S316D (Homo sapiens, UniProt O60701, S316D)", "T3 construct": "six-histidine; made in house; host or cells: E. coli BL21(DE3)", "T3 sequence (O60701 1-494 S316D)": "T1 sequence (O60701 1-494) with S316D", "experiment": "steady state kinetics of purified recombinant UGDH S316D", "type": "biochemical", "conditions": "cofactor NAD+ varied", "procedure": "as §2"}, "[7]": {"tested_on": "LNCaP cell lines (VC, UGDH WT (OE), UGDH S316D, UGDH S316A)", "experiment": "tumoroid (anchorage independent spheroid) growth assay", "type": "cell-based, human"}}, "note": "Substitutions are numbered along the chain they refer to. Entries after “also recorded” stand apart in the source; their conditions may differ. Where two headings read alike, the source gives them in different places."}
{"compound": "C[C@]12CCC(=O)C[C@@H]1CC[C@@H]1[C@@H]2CC[C@]2(C)[C@@H](O)CC[C@@H]12", "note": "[DHT, 5α-Androstan-17β-ol-3-one]", "values": [{"measurement": "stimulation of UGDH phosphorylation in whole cell lysates", "setting": "[1]", "value": "Strong stimulation"}]}
{"compound": "Cc1cc(=O)oc2cc(O)ccc12", "note": "[4-MU, 4-methylumbelliferone]", "values": [{"measurement": "O-glycan levels with 4-MU", "setting": "[2]; UGDH S316D cell lines", "value": "this reversal was not observed"}, {"measurement": "O-glycan levels with 4-MU", "setting": "[2]; UGDH WT (OE) cells", "value": "significant reductions in O-linked glycans; also recorded: reversed the enhancement of O-glycan levels"}]}
{"compound": "CCc1cncnc1N1CCN(Cc2nc3ccc(C(F)(F)F)cc3[nH]2)CC1", "note": "[PF4708671]", "values": [{"measurement": "EGF-stimulated p-UGDH band intensity", "setting": "[1]; LNCaP cells", "value": "significantly reduced"}, {"measurement": "cell number / proliferation, single kinase inhibitor", "setting": "[3]", "value": "reduced proliferation in all lines"}]}
{"compound": "NC(=O)c1ccc[n+]([C@@H]2O[C@H](COP(=O)([O-])OP(=O)(O)OC[C@H]3O[C@@H](n4cnc5c(N)ncnc54)[C@H](O)[C@@H]3O)[C@@H](O)[C@H]2O)c1", "note": "[NAD+]", "values": [{"measurement": "Km", "setting": "[4]", "value": "530 ± 90", "unit": "µM"}, {"measurement": "NAD+ Vmax", "setting": "[4]", "value": "710±40 nmol/min/mg of protein"}, {"measurement": "NAD+ Vmax", "setting": "[4]; listed as NAD^+", "value": "710 nmol/min/mg of protein"}, {"measurement": "Km", "setting": "[5]", "value": "380 ± 60", "unit": "µM"}, {"measurement": "NAD+ Vmax", "setting": "[5]", "value": "490±20 nmol/min/mg of protein"}, {"measurement": "NAD+ Vmax", "setting": "[5]; listed as NAD^+", "value": "490 nmol/min/mg of protein"}, {"measurement": "Km", "setting": "[6]", "value": "330 ± 70", "unit": "µM"}, {"measurement": "NAD+ Vmax", "setting": "[6]", "value": "230±20 nmol/min/mg of protein"}, {"measurement": "NAD+ Vmax", "setting": "[6]; listed as NAD^+", "value": "230 nmol/min/mg of protein"}]}
{"compound": "O=C(O)c1ccc(-c2c[nH]c3ncc(-c4ccccc4)cc23)cc1C1CCCC1", "note": "[GSK650394]", "values": [{"measurement": "DHT-stimulated p-UGDH band", "setting": "[1]; LNCaP cells, 10 nM DHT, GSK650394 40 μM", "value": "virtually eliminated"}, {"measurement": "cell proliferation after serum and steroid depletion", "setting": "[3]; GSK650394 40 μM, depleted 48 h, then serum and 10 nM DHT", "value": "significant impacts were observed"}, {"measurement": "cell proliferation in replete medium", "setting": "[3]; GSK650394 40 μM, replete medium, not shown", "value": "did not abrogate cell proliferation"}]}
{"compound": "EGF: growth factor used to stimulate activity of RSK2 and S6K1", "values": [{"measurement": "stimulation of UGDH phosphorylation in whole cell lysates", "setting": "[1]; serum starved LNCaP cells, EGF 20ng/mL or 10 nM DHT", "value": "Strong stimulation"}]}
{"compound": "CNC(=O)c1ccc(N2C(=S)N(c3ccc(C#N)c(C(F)(F)F)c3)C(=O)C2(C)C)cc1F", "note": "[enz, enzalutamide]", "values": [{"measurement": "growth in the presence of enz and S6K1 inhibitor", "setting": "[3]; UGDH S316D lines, 10 μM enz + PF4708671 20 μM", "value": "< 30 % of initial cell count"}, {"measurement": "proliferation in the presence of enz alone", "setting": "[3]; UGDH WT and S316D cells, 10 μM enz", "value": "minimal detectable effect on proliferation; also recorded: continued to proliferate"}, {"measurement": "growth reduction, combined targeting of RSK2 with enz", "setting": "[3]; UGDH WT and S316D, 10 μM enz + BIX02565 20 μM", "value": "≈ 20%"}, {"measurement": "growth, combined targeting of RSK2 with enz", "setting": "[3]; VC and UGDH S316A lines, 10 μM enz + BIX02565 20 μM", "value": "eliminated growth"}, {"measurement": "growth suppression by enz alone", "setting": "[3]; VC and UGDH S316A-expressing cells, 10 μM enz", "value": "≈ 40%"}, {"measurement": "enz suppression of large spheroid growth", "setting": "[7]; UGDH WT (OE) and S316D expressing cells, 1 μM enz", "value": "sensitive"}]}
{"compound": "C[C@@H]1CCNC(=O)c2cc3ccc(C(=O)Nc4nc5ccccc5n4CCCN(C)C)cc3n21", "note": "[BIX02565]", "values": [{"measurement": "EGF-stimulated p-UGDH band intensity", "setting": "[1]; LNCaP cells", "value": "significantly reduced"}, {"measurement": "cell death", "setting": "[3]; VC and UGDH S316A cells, BIX02565 20 μM", "value": "induced significant cell death"}, {"measurement": "cell number / proliferation, single kinase inhibitor", "setting": "[3]", "value": "reduced cell number in all lines"}, {"measurement": "spheroid growth diminished", "setting": "[7]; UGDH WT (OE) and S316D expressing cells, RSK2 inhibitor BIX02565 20 μM", "value": "≈ 80%"}, {"measurement": "medium and large spheroid growth", "setting": "[7]; VC and UGDH S316A cell lines, RSK2 inhibitor BIX02565 20 μM", "value": "almost completely suppressed"}]}
